# Data reported in patent US7199129B2, “Derivatives of morphine-like opioid compounds” (Monash University, priority 2001, dated 2007).
# Where “and” joins values, the source holds several entries; their conditions need not be identical. Equal entries are not always repeated.
# How the values were obtained:
# ICR mice = test: Phenylquinone-induced writhing model in mice (Example 16); assay type: in vivo; details: IP; for No. of Writhings Individual: individual mice
# Experimental: KRS-5-150 was evaluated for possible analgesic activity in the phenylquinone-induced writhing model in mice (Siegmund et al, 1957). A serial 2-fold dosage variance was used in the test, from 128 mg/kg to 1 mg/kg (8 doses in total). Groups of 3 male or female ICR mice weighing 22±2 g were employed. A serial 2-fold dosage variance was used in the test (8 doses in total). Variant doses (1, 2, 4, 8, 16, 32, 64 and 128 mg/kg) of test substances were administered intraperitoneally (IP). A vehicle of 2% Tween 80 in 0.9% NaCl was used for the intraperitoneal injection. The control group received vehicle alone. […] A reduction in the number of writhes by 50 percent or more (≧50%) relative to the vehicle-treated group indicated possible analgesic activity.
# human κ-opiate receptor = target: T1, human κ-opiate receptor (Homo sapiens, UniProt P41145); test: In vitro opiate receptor radioligand binding assay, κ; details: test compound 10 μM
# T1 construct: purchased MDS Pharma Services 260210
# Experimental: To characterise the target specificity of the compounds, KRS-5-150 and KRS-6-26 were tested at a concentration of 10 μM for their ability to inhibit the binding of a radioligand to human δ-, κ-, or μ-opiate receptors in vitro using commercially available assays (MDS Pharma Services; assay catalogue numbers 260110, 260210 and 260410 respectively).
# Percentage inhibition of radioligand binding to human opioid receptors in vitro by test compounds (10 μM)
# T1 sequence (P41145 whole entry): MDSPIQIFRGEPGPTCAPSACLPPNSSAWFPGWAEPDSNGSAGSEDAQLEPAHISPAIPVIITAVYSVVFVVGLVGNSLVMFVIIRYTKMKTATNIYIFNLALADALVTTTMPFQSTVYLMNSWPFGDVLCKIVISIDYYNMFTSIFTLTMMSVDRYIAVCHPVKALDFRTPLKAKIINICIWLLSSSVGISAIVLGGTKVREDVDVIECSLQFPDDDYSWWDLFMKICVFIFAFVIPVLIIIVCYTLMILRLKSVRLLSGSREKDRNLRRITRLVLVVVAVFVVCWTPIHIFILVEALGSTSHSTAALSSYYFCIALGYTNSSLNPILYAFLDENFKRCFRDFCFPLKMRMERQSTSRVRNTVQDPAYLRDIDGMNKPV
smiles,measurement,setting,value
"Oc1ccc2c3c1O[C@H]1[C@@H](O)C=C[C@H]4[C@@H](C2)N(CCCNC(=Nc2ccccc2)Nc2ccccc2)CC[C@@]341 [KRS-5-150, (5α,6α)-7,8 didehydro-4,5-epoxy-17-(N,N′-bisphenylcarboxamidino-3-aminopropyl)morphinan,3,6-diol]",% Inhibition,"ICR mice; 1 mg/kg, Table 1",33%
same,No. of Writhings Average,"ICR mice; 1 mg/kg, Table 1",10
same,No. of Writhings Individual,"ICR mice; 1 mg/kg, Table 1",14 and 0 and 16
same,% Inhibition,"ICR mice; 2 mg/kg, Table 1",73%
same,No. of Writhings Average,"ICR mice; 2 mg/kg, Table 1",4
same,No. of Writhings Individual,"ICR mice; 2 mg/kg, Table 1",8 and 1 and 4
same,% Inhibition,"ICR mice; 4 mg/kg, Table 1",80%
same,No. of Writhings Average,"ICR mice; 4 mg/kg, Table 1",3
same,No. of Writhings Individual,"ICR mice; 4 mg/kg, Table 1",0 and 7 and 3
same,% Inhibition,"ICR mice; 8 mg/kg, Table 1",87%
same,No. of Writhings Average,"ICR mice; 8 mg/kg, Table 1",2
same,No. of Writhings Individual,"ICR mice; 8 mg/kg, Table 1",4 and 0 and 2
same,% Inhibition,"ICR mice; 16 mg/kg, Table 1",80%
same,No. of Writhings Average,"ICR mice; 16 mg/kg, Table 1",3
same,No. of Writhings Individual,"ICR mice; 16 mg/kg, Table 1",0 and 4 and 5
same,% Inhibition,"ICR mice; 32 mg/kg, Table 1",100%
same,No. of Writhings Average,"ICR mice; 32 mg/kg, Table 1",0
same,No. of Writhings Individual,"ICR mice; 32 mg/kg, Table 1",0 (2×) and 1
same,% Inhibition,"ICR mice; 64 mg/kg, Table 1",100%
same,No. of Writhings Average,"ICR mice; 64 mg/kg, Table 1",0
same,No. of Writhings Individual,"ICR mice; 64 mg/kg, Table 1",0
same,died (animals of group of 3),"ICR mice; 128 mg/kg, Table 1",2/3 died
same,No. of Writhings Individual,"ICR mice; 128 mg/kg, Table 1",0
same,analgesic activity (≧50% reduction in writhes),"ICR mice; doses of 64, 32, 16, 8, 4 and 2 mg/kg",Significant activity
same,"Percentage inhibition of radioligand binding, κ-opiate receptor",human κ-opiate receptor,79%
